In PubChem BioAssay AID248 (DTP/NCI, 2004):
Several values for one entry are separate records, joined by “and”; a condition that tells them apart may be missing. Identical values can stand only once. Inconclusive results and toxic doses are left out. Rule as the data show it: active = T/C of 150% or more; inactive = T/C below 125%.

Test system: L1210 leukemia ip in BDF1 mice, survival T/C
Assay: NCI In Vivo Anticancer Drug Screen. Data for tumor model L1210 Leukemia (intraperitoneal) in B6D2F1 (BDF1) mice
Details: endpoint: mean survival time, higher = longer survival
Outline: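 Tumor cells were implanted, animals were treated, and survival was followed. The result divides the treated measurement by the vehicle-control measurement.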

[1] = dose: 50.0 mg/kg/injection, schedule: Q01DX009 (ip), vehicle: saline
[2] = dose: 100.0 mg/kg/injection, schedule: Q01DX009 (ip), vehicle: Klucel (hydroxypropylcellulose) (HPC)
[3] = dose: 200.0 mg/kg/injection, schedule: Q01DX009 (ip), vehicle: Klucel (hydroxypropylcellulose) (HPC)
[4] = dose: 400.0 mg/kg/injection, schedule: Q01DX009 (ip), vehicle: Klucel (hydroxypropylcellulose) (HPC)
[5] = dose: 100.0 mg/kg/injection, schedule: Q04DX003 (ip), vehicle: saline with Tween-80
[6] = dose: 200.0 mg/kg/injection, schedule: Q04DX003 (ip), vehicle: saline with Tween-80
[7] = dose: 400.0 mg/kg/injection, schedule: Q04DX003 (ip), vehicle: saline with Tween-80
[8] = dose: 200.0 mg/kg/injection, schedule: Q04DX002 (ip), vehicle: Klucel (hydroxypropylcellulose) (HPC)
[9] = dose: 400.0 mg/kg/injection, schedule: Q04DX002 (ip), vehicle: Klucel (hydroxypropylcellulose) (HPC)
[10] = dose: 100.0 mg/kg/injection, schedule: Q01DX009 (ip), vehicle: saline with Tween-80
[11] = dose: 200.0 mg/kg/injection, schedule: Q01DX009 (ip), vehicle: saline with Tween-80
[12] = dose: 100.0 mg/kg/injection, schedule: Q04DX003 (ip), vehicle: Klucel (hydroxypropylcellulose) (HPC)
[13] = dose: 200.0 mg/kg/injection, schedule: Q04DX003 (ip), vehicle: Klucel (hydroxypropylcellulose) (HPC)
[14] = dose: 400.0 mg/kg/injection, schedule: Q04DX003 (ip), vehicle: Klucel (hydroxypropylcellulose) (HPC)
[15] = dose: 100.0 mg/kg/injection, schedule: Q04DX002 (ip), vehicle: saline with Tween-80
[16] = dose: 200.0 mg/kg/injection, schedule: Q04DX002 (ip), vehicle: saline with Tween-80
[17] = dose: 100.0 mg/kg/injection, schedule: Q01DX001 (ip), vehicle: saline with Tween-80
[18] = dose: 200.0 mg/kg/injection, schedule: Q01DX001 (ip), vehicle: saline with Tween-80
[19] = dose: 100.0 mg/kg/injection, schedule: Q04DX002 (ip), vehicle: Klucel (hydroxypropylcellulose) (HPC)
[20] = dose: 50.0 mg/kg/injection, schedule: Q01DX009 (ip), vehicle: saline with Tween-80
[21] = dose: 100.0 mg/kg/injection, schedule: Q01DX001 (ip), vehicle: Klucel (hydroxypropylcellulose) (HPC)
[22] = dose: 200.0 mg/kg/injection, schedule: Q01DX001 (ip), vehicle: Klucel (hydroxypropylcellulose) (HPC)
[23] = dose: 400.0 mg/kg/injection, schedule: Q01DX001 (ip), vehicle: Klucel (hydroxypropylcellulose) (HPC)

Measured: T/C

Cc1cc([N+](=O)[O-])ccc1NC(=O)c1ccccc1
inactive: dose: 100.0 mg/kg/injection, schedule: Q04DX003 (ip), vehicle: acetone 94 % of control | dose: 200.0 mg/kg/injection, schedule: Q04DX003 (ip), vehicle: acetone 100 % of control | dose: 400.0 mg/kg/injection, schedule: Q04DX003 (ip), vehicle: acetone 93 % of control

CNNC(=O)Cc1ccc(OC)cc1
inactive: [1] 100 % of control | dose: 100.0 mg/kg/injection, schedule: Q01DX001 (ip), vehicle: saline 100 % of control | dose: 200.0 mg/kg/injection, schedule: Q01DX001 (ip), vehicle: saline 113 % of control

CCCCSC1=CC(=O)c2ccccc2C1=O
inactive: dose: 12.5 mg/kg/injection, schedule: Q04DX003 (ip), vehicle: Klucel (hydroxypropylcellulose) (HPC) 104 % of control

O=C(N1CCCCC1)N1CCCCC1
inactive: dose: 100.0 mg/kg/injection, schedule: Q04DX002 (ip), vehicle: other 105 % of control | dose: 200.0 mg/kg/injection, schedule: Q04DX002 (ip), vehicle: other 91 % of control | dose: 400.0 mg/kg/injection, schedule: Q04DX002 (ip), vehicle: other 88 % of control

COc1ccc(C(=O)N/N=C/c2ccc(Cl)cc2Cl)cc1
inactive: [2] 102 % of control | [3] 94 % of control | [4] 91 % of control

CC(=O)Oc1cc([N+](=O)[O-])ccc1C(=O)O
inactive: [5] 96 % of control | [6] 91 % of control | [7] 94 % of control

O=C1C=CC(=C(c2ccccc2)c2ccccc2)C=C1
inactive: dose: 12.5 mg/kg/injection, schedule: Q01DX009 (ip), vehicle: Klucel (hydroxypropylcellulose) (HPC) 106 % of control | dose: 25.0 mg/kg/injection, schedule: Q01DX009 (ip), vehicle: Klucel (hydroxypropylcellulose) (HPC) 95 % of control | dose: 50.0 mg/kg/injection, schedule: Q01DX009 (ip), vehicle: Klucel (hydroxypropylcellulose) (HPC) 107 % of control | [1] 87 % of control | dose: 75.0 mg/kg/injection, schedule: Q04DX003 (ip), vehicle: saline 90 % of control | dose: 150.0 mg/kg/injection, schedule: Q04DX003 (ip), vehicle: saline 102 % of control

COc1ccc(OC)c(NC(=O)Nc2cc([N+](=O)[O-])ccc2C)c1
inactive: [8] 92 % of control | [9] 100 % of control

C=C(C(=O)c1ccccc1)C(O)c1ccccc1 (stereo not drawn)
inactive: [10] 104 % of control | [5] 100 % of control | [11] 90 % of control | [6] 100 % of control | [7] 97 % of control

Cc1ccc(S(=O)(=O)Oc2ccc([N+](=O)[O-])cc2)cc1
inactive: [2] 103 % of control | [12] 97 % of control | [3] 97 % of control | [13] 94 % of control | [4] 102 % of control | [14] 100 % of control

O=C(CNc1ccccc1)c1ccc(O)c(C(=O)O)c1 (tested in a mixture with another compound)
inactive: [12] 91 % of control | [13] 90 % of control | [14] 93 % of control

C(=C(c1ccccc1)c1ccccc1)C1=NCCS1
inactive: dose: 50.0 mg/kg/injection, schedule: Q04DX002 (ip), vehicle: saline with Tween-80 108 % of control | dose: 100.0 mg/kg/injection, schedule: Q03DX002 (ip), vehicle: saline with Tween-80 98 % of control | [15] 101 % of control | [16] 104 % of control | dose: 400.0 mg/kg/injection, schedule: Q03DX002 (ip), vehicle: saline with Tween-80 117 % of control

Nc1nc(=O)n(CCCOc2ccc(NC(=O)Nc3cccc(S(=O)(=O)F)c3)cc2)cc1-c1ccc(Cl)c(Cl)c1
inactive: dose: 50.0 mg/kg/injection, schedule: Q01DX001 (ip), vehicle: saline with Tween-80 98 % of control | [17] 98 % of control | [18] 95 % of control

Nc1cc2c3c(cccc3c1Br)C(=O)NC2=O
inactive: [19] 121 % of control | [8] 96 % of control | [9] 107 % of control

Cn1c2ccccc2c2cc[n+]3c(c21)CCCC3
inactive: dose: 5.0 mg/kg/injection, schedule: Q01DX001 (ip), vehicle: saline 108 % of control | dose: 10.0 mg/kg/injection, schedule: Q01DX001 (ip), vehicle: saline 108 % of control | dose: 20.0 mg/kg/injection, schedule: Q01DX001 (ip), vehicle: saline 115 % of control | dose: 40.0 mg/kg/injection, schedule: Q01DX001 (ip), vehicle: saline 115 % of control

C#CC(CC(C)CC(C)(C)C)N(C)C (stereo not drawn)
inactive: dose: 25.0 mg/kg/injection, schedule: Q01DX009 (ip), vehicle: saline with Tween-80 92 % of control | [20] 92 % of control | [10] 101 % of control

CCn1/c(=N\N=O)sc2ccccc21
inactive: [21] 96 % of control

CCC(C(OC(=O)Nc1ccc(Cl)c(Cl)c1)c1ccc(Cl)cc1)C(O)(C(F)(F)F)C(F)(F)F (stereo not drawn)
inactive: [12] 98 % of control | [13] 100 % of control | [14] 98 % of control

CCCCC(=O)N1C(=O)Cc2ccccc21
inactive: dose: 50.0 mg/kg/injection, schedule: Q04DX002 (ip), vehicle: Klucel (hydroxypropylcellulose) (HPC) 97 % of control | [19] 97 % of control | [8] 97 % of control

CCCCCCCCN(C=O)CCCCCCCC
inactive: [15] 98 % of control

Cc1cccc(NC(=O)N(C)N)c1
inactive: dose: 75.0 mg/kg/injection, schedule: Q01DX001 (ip), vehicle: carboxymethylcellulose (CMC) 96 % of control | dose: 150.0 mg/kg/injection, schedule: Q01DX001 (ip), vehicle: carboxymethylcellulose (CMC) 104 % of control

CN(C)Cc1c(O)ccc2ccccc12
inactive: [15] 100 % of control | [16] 90 % of control

O=C(c1ccccc1)C1C(c2ccccc2)N1Cc1ccccc1 (stereo not drawn)
inactive: dose: 50.0 mg/kg/injection, schedule: Q04DX003 (ip), vehicle: Klucel (hydroxypropylcellulose) (HPC) 102 % of control | [21] 87 % of control | [2] 100 % of control | [12] 98 % of control | [22] 88 % of control | [13] 98 % of control | [23] 95 % of control

CN(C)CCSCCN1c2ccccc2Sc2ccc(Cl)cc21
inactive: dose: 100.0 mg/kg/injection, schedule: Q04DX003 (ip), vehicle: saline 104 % of control

CC1(C)C2CCC(I)(C2)C1O (stereo not drawn)
inactive: [17] 105 % of control | [18] 100 % of control | dose: 400.0 mg/kg/injection, schedule: Q01DX001 (ip), vehicle: saline with Tween-80 105 % of control

O=C(Nc1cc([N+](=O)[O-])ccc1F)Oc1ccc(OCc2ccccc2)cc1
inactive: [19] 103 % of control | [8] 89 % of control | [9] 106 % of control

NC(N)=N/N=C/c1cccc([N+](=O)[O-])c1
inactive: dose: 15.0 mg/kg/injection, schedule: Q01DX Z (ip), vehicle: carboxymethylcellulose (CMC) 98 % of control | dose: 30.0 mg/kg/injection, schedule: Q01DX Z (ip), vehicle: carboxymethylcellulose (CMC) 93 % of control | dose: 60.0 mg/kg/injection, schedule: Q01DX Z (ip), vehicle: carboxymethylcellulose (CMC) 90 % of control

O=Nc1[nH]c(O)c2ccccc12
inactive: [12] 97 % of control and 91 % of control | [13] 99 % of control and 103 % of control | [14] 103 % of control and 89 % of control

CC(=O)OC1CCC2(C)C3CCC4(C)C(O)CCC4C3CC(O)C2(O)C1 (stereo not drawn)
inactive: [10] 110 % of control | [11] 97 % of control | dose: 400.0 mg/kg/injection, schedule: Q01DX009 (ip), vehicle: saline with Tween-80 94 % of control

Cc1c[n+]([O-])c(C)cc1N=Nc1ccc(N(C)C)cc1
inactive: [20] 111 % of control | [10] 95 % of control | [15] 89 % of control | [11] 90 % of control | [16] 99 % of control

O=[N+]([O-])c1cc(Br)cnc1Br
inactive: [21] 100 % of control | [2] 101 % of control | [22] 105 % of control | [3] 96 % of control | [23] 105 % of control | [4] 103 % of control

CC(C)N1C(=O)OC2(CCN(CCCSc3ccc(F)cc3)CC2)C1=O
inactive: [12] 103 % of control | [13] 103 % of control | [14] 103 % of control

O=C(O)c1cccc([N+](=O)[O-])c1Br
inactive: [2] 94 % of control | [3] 100 % of control | [4] 91 % of control
